Source: patent US20230096766A1, “AMINO ACID HAVING FUNCTIONAL GROUP CAPABLE OF INTERMOLECULAR HYDROGEN BONDING, PEPTIDE COMPOUND CONTAINING SAME AND METHOD FOR PRODUCTION THEREOF” (Chugai Seiyaku Kabushiki Kaisha, priority 2018, published 2023)
Where two headings read alike, the source gives them in different places. *1 amine or outer side, *2 acyl side, *3 side chain or, on linkers, in order; H or OH if unused. Where a SMILES comes first, the peptide text is derived from it. Bridges are numbered along the chain shown (N, C = ends). [ ]: non-standard residue; d: D form. The star is where a group is joined. ξ: configuration not given here. NMePhe(3-Cl) = CN[C@@H](Cc1cccc(Cl)c1)C(=O)O; NMehPhe = CN[C@@H](CCc1ccccc1)C(=O)O; Ethyl(2-morpholino) = C1CN(CC*)CCO1; hhPhe = N[C@@H](CCCc1ccccc1)C(=O)O; NMeF = CN[C@@H](Cc1ccccc1)C(=O)O; NMeGABA = CN(CCCC(=O)[*:2])[*:1]; NMeI = CC[C@H](C)[C@H](NC)C(=O)O; hPhe = N[C@@H](CCc1ccccc1)C(=O)O; NMeD = CN[C@@H](CC(=O)O)C(=O)O; CH2CONHtBu = CC(C)(C)NC(=O)C*; NMeL = CN[C@@H](CC(C)C)C(=O)O; NMeV = CN[C@H](C(=O)O)C(C)C; NMeAbu = CC[C@H](NC)C(=O)O; NMeA = CN[C@@H](C)C(=O)O; Piperidide = C1CCN(*)CC1; NBuGly = CCCCNCC(=O)O; NPrGly = CCCNCC(=O)O; X2 = Fc1cncc(C*)c1; Bn = c1ccc(C*)cc1; ξS = NC(CO)C(=O)O; Sar = CNCC(=O)O; tBu = CC(C)(C)*

Assays:
Caco-2 [1] = test: Membrane permeability test of cyclic peptides (Caco-2, modified/improved method of WO 2018/124162)
[2] = Actual measurement of pKa of amino acid side chains by titration (Sirius T3) on three-residue peptides; type: physicochemical; conditions: for basic pKa / pKa: measured by titration (Sirius T3), 25° C., 0.15M; for basic pKa: amino acid X in three-residue peptide ZMeGly-X-MeGly-pip (Table 24); for pKa: amino acid X in three-residue peptide ZMeGly-X-MeGly-pip (Table 24, second part)
Procedure: pKas and basic pKas can be determined by a conventional method. For example, they can be measured by a method such as that described in Experimental Chemistry Lecture 5, “Thermal Measurements and Equilibrium”, p. 460 (edited by The Chemical Society of Japan, published by Maruzen Co., Ltd.). More specifically, they can be measured by a method described in Reference Example 3-1.
Herein, measurement of pKas of amino acid side chains was carried out according to the following procedure.
Sirius T3 (Sirius Analytical Instruments Ltd., Forest Row, East Sussex, RH18 5DW, UK)
0.15 M KCl was added to about 1 mg of a test substance as a powder or in about 100 μL of a 10 mM DMSO solution. When the test substance was a basic compound, 0.5 M HCl was added until pH 2 and the test substance was then titrated to pH 12 with 0.5 M KOH.
When the test substance was an acidic compound, 0.5 M KOH was added until pH 12 and the test substance was then titrated to pH 2 with 0.5 M HCl.
Titration operations were automatically performed by T3 manufactured by Sirius, and pKas were determined from the resulting titration curves using Sirius T3 Refinement software.
pKas were similarly determined using imipramine HCl, propranolol HCl, and warfarin as reference compounds, and were confirmed to be within the test results obtained in Sirius. pKas of amino acid side chains were determined by synthesizing a sequence in which the amino acid to be evaluated is introduced into the second residue (the position X in the following table) of a peptide composed of three residues as shown below.

in vitro = conditions: human, Caco-2, Caco-2 (cm/sec)
Caco-2 [3] = tested on: Caco-2
[4] = amino acid side chain, Sirius T3 titration

Row | SMILES | Papp (in vitro) [×10⁻⁶ cm/s] | Caco-2 (Caco-2 [3]) [cm/s] | further results
1 | CC(C)(CO)COC[C@H](N)C(=O)O [Ser(2-Me2-PrOH), O-(3-hydroxy-2,2-dimethylpropyl)-L-serine] |  |  | membrane permeability compared with counterpart peptides (Caco-2 [1]; pairwise comparison of matched cyclic peptides, result in words): tended to have better membrane permeability than Ser(nPrOH)
2 | CN[C@@H](CCN1CCOCC1)C(=O)O [MeAbu(Mor)] |  |  | basic pKa [2]: 6.8
3 | CCCCN1CC(=O)N(C)[C@@H](CC(C)C)C(=O)N[C@H](C(=O)N2CCCCC2)CC(=O)N(C)[C@@H](CC)C(=O)N[C@@H](CC(C)C)C(=O)N(C)[C@@H](CC(C)C)C(=O)N(C)[C@@H](Cc2ccccc2)C(=O)N[C@@H](COCCN2CCOCC2)C(=O)N(C)[C@@H](CC)C(=O)N(C)[C@@H](CC(C)C)C(=O)N[C@@H]([C@@H](C)O)C1=O [pd482] ([NMeAbu]L[NMeL][NMeF]S(Ethyl(2-morpholino))[NMeAbu][NMeL]T[NBuGly][NMeL]D-Piperidide; lactam N-11) |  |  | Caco-2 (Caco-2 [1]; Papp, membrane permeability, cyclic peptides comprising MeAbu(pip-4-F2), MeAbu(Mor), Ser(Et-2-Mor), MeAbu(pip-3-F2) or Abu(5-Oxo-Odz) (Table 29)): 1.1e-06 cm/s
4 | CN[C@@H](CCc1noc(=O)[nH]1)C(=O)O [MeAbu(5-Oxo-Odz)] |  |  | pKa [2]: 5.7
5 | CN[C@@H](CCN1CCC(F)(F)CC1)C(=O)O [MeAbu(pip-4-F2)] |  |  | basic pKa [2]: 6.7
6 | CN[C@@H](CCN1CCCC(F)(F)C1)C(=O)O [MeAbu(pip-3-F2)] |  |  | pKa [2]: 5.7
7 | CC(C)C[C@H]1C(=O)N[C@@H](COC(C)(C)C)C(=O)N(C)[C@@H](Cc2ccccc2)C(=O)N(C)[C@@H](C(C)C)C(=O)N[C@H](C(=O)N2CCCCC2)CC(=O)N[C@H](C(C)C)C(=O)N(C)[C@@H](Cc2ccccc2)C(=O)N[C@@H](COCc2cncc(F)c2)C(=O)N(C)[C@@H](CC(C)C)C(=O)N[C@@H]([C@@H](C)O)C(=O)N(C)CC(=O)N1C [pd180] ([dV][NMeF]S(X2)[NMeL]T[Sar][NMeL]S(tBu)[NMeF][NMeV]D-Piperidide; lactam N-11) | 2.4 |  | Caco-2 (cm/sec) (Caco-2 [3]): 2 4E−06 cm/sec
8 | CC[C@H](C)[C@H]1C(=O)N[C@H](C(=O)N2CCCCC2)CC(=O)N(C)CC(=O)N(C)[C@@H](Cc2ccccc2)C(=O)N[C@@H](CCCc2ccccc2)C(=O)N(C)[C@@H](CC(C)C)C(=O)N[C@@H]([C@@H](C)O)C(=O)N(C)CC(=O)N(C)[C@@H](Cc2ccccc2)C(=O)N(C)[C@@H](CC(C)C)C(=O)N[C@@H](COC(C)(C)C)C(=O)N1C [pd189] ([Sar][NMeF][hhPhe][NMeL]T[Sar][NMeF][NMeL]S(tBu)[NMeI]D-Piperidide; lactam N-11) | 1.8 | 1.8e-06 | 
9 | CCCN1CC(=O)N(C)[C@@H](CC(C)C)C(=O)N[C@@H](CC(C)C)C(=O)N(C)[C@@H](Cc2ccccc2)C(=O)N(C)[C@@H](C)C(=O)N[C@H](C(=O)N2CCCCC2)CC(=O)N[C@H](CC(C)C)C(=O)N(C)[C@@H](Cc2ccccc2)C(=O)N[C@@H](COCC(=O)NC(C)(C)C)C(=O)N(C)[C@@H](CC(C)C)C(=O)N[C@@H]([C@@H](C)O)C1=O [AP11] ([dL][NMeF]S(CH2CONHtBu)[NMeL]T[NPrGly][NMeL]L[NMeF][NMeA]D-Piperidide; lactam N-11) |  |  | Caco-2 (Caco-2 [1]; membrane permeability of cyclic peptides, Caco-2): 1.1e-06 cm/s
10 | CC(C)C[C@H]1C(=O)N(C)[C@@H](C(C)C)C(=O)N[C@@H](Cc2ccccc2)C(=O)N[C@H](C(=O)N(C)[C@@H](Cc2ccccc2)C(=O)N[C@@H](C)C(=O)N2CCCCC2)CC(=O)N(C)CCCC(=O)N[C@@H](C(C)C)C(=O)N(C)[C@@H](CC(C)C)C(=O)N[C@@H]([C@@H](C)O)C(=O)N(C)[C@@H](Cc2ccccc2)C(=O)NCC(=O)N1C [pd198] ([NMeGABA]V[NMeL]T[NMeF]G[NMeL][NMeV]FD[NMeF]A-Piperidide; lactam N-10) | 2.7 | 2.7e-06 | 
11 | CC[C@H](C)[C@@H]1NC(=O)[C@H](Cc2ccccc2)N(C)C(=O)CN(C)C(=O)C[C@@H](C(=O)N2CCCCC2)NC(=O)[C@H](C)N(C)C(=O)[C@H](CCCc2ccccc2)NC(=O)[C@H](CC(C)C)N(C)C(=O)[C@H](Cc2ccccc2)N(C)C(=O)CN(C)C(=O)[C@H]([C@@H](C)O)NC(=O)[C@H](CC(C)C)N(C)C1=O [pd190] ([Sar][NMeF]I[NMeL]T[Sar][NMeF][NMeL][hhPhe][NMeA]D-Piperidide; lactam N-11) | 1.5 | 1.5e-06 | 
12 | CC(C)C[C@H]1C(=O)N[C@@H]([C@@H](C)O)C(=O)N(C)CC(=O)N(C)[C@@H](C(C)C)C(=O)N[C@@H](Cc2ccccc2)C(=O)N(C)[C@@H](Cc2cccc(Cl)c2)C(=O)N(C)[C@@H](CC(C)C)C(=O)N(C)[C@H](C(=O)N2CCCCC2)CC(=O)N2CCC[C@@H]2C(=O)N[C@@H](Cc2ccccc2)C(=O)N[C@@H](COC(C)(C)C)C(=O)N1C [pd163] ([dP]FS(tBu)[NMeL]T[Sar][NMeV]F[NMePhe(3-Cl)][NMeL][NMeD]-Piperidide; lactam N-11) | 1.7 | 1.7e-06 | 
13 | CC(C)C[C@H]1C(=O)N(C)[C@@H](CCc2ccccc2)C(=O)N[C@@H](COC(C)(C)C)C(=O)N(C)[C@@H](C)C(=O)N[C@H](C(=O)N2CCCCC2)CC(=O)N(C)[C@@H](C)C(=O)N(C)[C@@H](Cc2ccccc2)C(=O)N[C@@H](CCc2ccccc2)C(=O)N(C)[C@@H](CC(C)C)C(=O)N[C@@H]([C@@H](C)O)C(=O)N(C)CC(=O)N1C [pd184] ([NMeA][NMeF][hPhe][NMeL]T[Sar][NMeL][NMehPhe]S(tBu)[NMeA]D-Piperidide; lactam N-11) | 1.2 | 1.2e-06 | 
14 | CC(C)C[C@@H]1NC(=O)[C@H](Cc2ccccc2)N(C)C(=O)[C@@H]2CCCN2C(=O)C[C@@H](C(=O)N2CCCCC2)N(C)C(=O)[C@H](Cc2ccccc2)N(C)C(=O)[C@H](Cc2ccccc2)N(C)C(=O)[C@H](COC(C)(C)C)NC(=O)[C@H](C(C)C)N(C)C(=O)CN(C)C(=O)[C@H]([C@@H](C)O)NC(=O)[C@H](CC(C)C)N(C)C1=O [pd196] (P[NMeF]L[NMeL]T[Sar][NMeV]S(tBu)[NMeF][NMeF][NMeD]-Piperidide; lactam N-11) | 4 | 4e-06 | 
15 | CC[C@H](C)[C@@H]1NC(=O)[C@H](Cc2ccccc2)N(C)C(=O)CN(C)C(=O)C[C@@H](C(=O)N2CCCCC2)NC(=O)[C@H]([C@@H](C)CC)N(C)C(=O)C(COCc2ccccc2)NC(=O)[C@H](CC(C)C)N(C)C(=O)[C@H](Cc2ccccc2)N(C)C(=O)CN(C)C(=O)[C@H]([C@@H](C)O)NC(=O)[C@H](CC(C)C)N(C)C1=O (stereo partly drawn) [pd178] ([Sar][NMeF]I[NMeL]T[Sar][NMeF][NMeL][ξS](Bn)[NMeI]D-Piperidide; lactam N-11) | 2.5 | 2.5e-06 | 
16 | CC(C)C[C@H]1C(=O)N[C@@H](COC(C)(C)C)C(=O)N(C)[C@@H](Cc2ccccc2)C(=O)N(C)[C@@H](C)C(=O)N[C@H](C(=O)N2CCCCC2)CC(=O)N[C@H](C(C)C)C(=O)N(C)[C@@H](Cc2ccccc2)C(=O)N[C@@H](CCCc2ccccc2)C(=O)N(C)[C@@H](CC(C)C)C(=O)N[C@@H]([C@@H](C)O)C(=O)N(C)CC(=O)N1C [pd192] ([dV][NMeF][hhPhe][NMeL]T[Sar][NMeL]S(tBu)[NMeF][NMeA]D-Piperidide; lactam N-11) | 1.1 | 1.1e-06 | 
17 | CS(=O)(=O)NC(=O)CC[C@H](N)C(=O)O [Gln(Ms)] |  |  | measured pKa [2, 4]: 3.8
18 | CN(C)CCOC[C@H](N)C(=O)O [Ser(Et-2-NMe2)] |  |  | measured basic pKa [2, 4]: 9.1
19 | N[C@@H](COCCN1CCOCC1)C(=O)O [Ser(Et-2-Mor)] |  |  | basic pKa [2]: 7.2
20 | CC(C)C[C@H]1C(=O)N[C@@H]([C@@H](C)O)C(=O)N(C)CC(=O)N(C)[C@@H](Cc2ccccc2)C(=O)N(C)[C@@H](CC(C)C)C(=O)N[C@@H](COC(C)(C)C)C(=O)N(C)[C@@H](CC(C)C)C(=O)N[C@H](C(=O)N2CCCCC2)CC(=O)N(C)CC(=O)N(C)[C@@H](Cc2ccccc2)C(=O)N[C@@H](COCc2ccccc2)C(=O)N1C [pd177] ([Sar][NMeF]S(Bn)[NMeL]T[Sar][NMeF][NMeL]S(tBu)[NMeL]D-Piperidide; lactam N-11) | 3 | 3e-06 | 
21 | CC(C)C[C@@H]1NC(=O)[C@H](Cc2ccccc2)N(C)C(=O)[C@H]2CCCN2C(=O)C[C@@H](C(=O)N2CCCCC2)N(C)C(=O)[C@H](Cc2ccccc2)N(C)C(=O)[C@H](Cc2ccccc2)N(C)C(=O)[C@H](COC(C)(C)C)NC(=O)[C@H](C(C)C)N(C)C(=O)CN(C)C(=O)[C@H]([C@@H](C)O)NC(=O)[C@H](CC(C)C)N(C)C1=O [pd200] ([dP][NMeF]L[NMeL]T[Sar][NMeV]S(tBu)[NMeF][NMeF][NMeD]-Piperidide; lactam N-11) | 2.6 | 2.6e-06 | 
